ChEMBL document CHEMBL6182941, “Prodrugs Targeting Prostate-Specific Membrane Antigen against Prostate Cancer” (J Med Chem, 2025)

Assays:
[1] = biological target: T1, Glutamate carboxypeptidase 2 (Homo sapiens, UniProt Q04609); test: Binding affinity to human recombinant PSMA in LNCaP cells assessed as inhibition constant; format: cell-based
[2] = biological target: T2, N-acetylaspartylglutamate synthase A (Homo sapiens, UniProt Q8IXN7); test: Binding affinity to NAAG synthetase A (unknown origin) assessed as inhibition constant
T2 sequence (Q8IXN7 whole entry): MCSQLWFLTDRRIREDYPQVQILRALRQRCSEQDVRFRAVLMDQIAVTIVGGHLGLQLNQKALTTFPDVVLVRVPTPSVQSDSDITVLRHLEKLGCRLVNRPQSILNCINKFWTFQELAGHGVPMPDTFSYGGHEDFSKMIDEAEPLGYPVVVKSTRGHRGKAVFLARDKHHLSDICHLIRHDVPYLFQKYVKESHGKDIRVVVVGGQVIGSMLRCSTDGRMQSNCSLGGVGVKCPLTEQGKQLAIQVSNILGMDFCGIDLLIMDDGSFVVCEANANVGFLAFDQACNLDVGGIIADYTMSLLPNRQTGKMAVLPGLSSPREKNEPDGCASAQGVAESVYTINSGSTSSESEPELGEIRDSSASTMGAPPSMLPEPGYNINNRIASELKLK

[3] = biological target: N-acetylated-alpha-linked acidic dipeptidase 2 (Homo sapiens, UniProt Q9Y3Q0); test: Binding affinity to NAALAD-2 (unknown origin) assessed as inhibition constant
[4] = biological target: T1, Glutamate carboxypeptidase 2; test: Inhibition of human recombinant PSMA
KB = test: Cytotoxicity against human KB cells assessed as reduction in cell growth; format: functional, cell-based
A549 = test: Cytotoxicity against human A549 cells assessed as reduction in cell growth; format: functional, cell-based
LNCaP [5] = test: Cytotoxicity against human LNCaP cells assessed as cell death measured for 24 hrs; format: functional, cell-based
[6] = Cytotoxicity against human PC-3 flu cells
[7] = Cytotoxicity against human PC3-PIP cells assessed as reduction in cell viability incubated for 72 hrs by CCK-8 assay
[8] = Cytotoxicity against human PC-3 flu cells assessed as reduction in cell viability incubated for 72 hrs by CCK-8 assay
[9] = Cytotoxicity against human PC3-PIP cells; details: PC3-PIP cell
[10] = Antitumor activity against human PC3-PIP cells xenografted in […] assessed as reduction in tumor volume at 80 mg/kg, IP; format: functional, PC3-PIP cell
Cathepsin B = Cathepsin B (Homo sapiens, UniProt P07858); test: Inhibition of cathepsin B (unknown origin)
[11] = Antiproliferative activity against human PC3-PIP cells assessed as reduction in cell viability incubated for 72 hrs by XTT assay
[12] = Cytotoxicity against human HK-2 cells assessed as reduction in cell viability incubated for 48 hrs by MTT assay; format: toxicity, cell-based
CWR22R = test: Cytotoxicity against human 22Rv1 cells assessed as reduction in cell viability incubated for 48 hrs by MTT assay; format: functional, cell-based; details: 22Rv1, 48 h
DU-145 = test: Cytotoxicity against human DU-145 cells assessed as reduction in cell viability incubated for 72 hrs by MTT assay; details: DU-145, 72 h
LNCaP [13] = test: Cytotoxicity against human LNCaP cells assessed as reduction in cell viability incubated for 72 hrs by MTT assay
[14] = Half life in BALB/c mouse at 67 mg/kg by LC-MS/MS analysis; format: ADME, organism-based; details: in vivo

T1 sequence (Q04609 whole entry): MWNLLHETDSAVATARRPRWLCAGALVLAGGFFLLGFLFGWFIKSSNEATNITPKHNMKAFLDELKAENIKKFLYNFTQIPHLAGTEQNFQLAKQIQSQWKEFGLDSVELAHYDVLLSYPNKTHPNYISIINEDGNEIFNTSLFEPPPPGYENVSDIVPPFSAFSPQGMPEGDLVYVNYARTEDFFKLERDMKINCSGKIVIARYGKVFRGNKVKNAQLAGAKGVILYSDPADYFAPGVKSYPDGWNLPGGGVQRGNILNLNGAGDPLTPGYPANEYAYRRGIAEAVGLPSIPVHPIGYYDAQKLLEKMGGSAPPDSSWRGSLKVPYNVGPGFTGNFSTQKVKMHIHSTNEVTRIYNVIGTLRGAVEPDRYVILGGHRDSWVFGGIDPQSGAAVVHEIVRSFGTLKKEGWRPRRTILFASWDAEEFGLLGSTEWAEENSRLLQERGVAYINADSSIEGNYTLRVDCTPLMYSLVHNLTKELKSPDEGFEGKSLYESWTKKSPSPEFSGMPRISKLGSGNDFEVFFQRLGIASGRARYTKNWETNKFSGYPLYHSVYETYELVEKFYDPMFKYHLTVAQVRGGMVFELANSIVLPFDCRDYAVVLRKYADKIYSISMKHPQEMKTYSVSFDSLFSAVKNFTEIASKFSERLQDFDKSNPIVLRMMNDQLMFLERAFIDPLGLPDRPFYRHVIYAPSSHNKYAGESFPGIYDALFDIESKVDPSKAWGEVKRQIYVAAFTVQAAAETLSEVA
Chain of N-acetylated-alpha-linked acidic dipeptidase 2 (Q9Y3Q0 whole entry): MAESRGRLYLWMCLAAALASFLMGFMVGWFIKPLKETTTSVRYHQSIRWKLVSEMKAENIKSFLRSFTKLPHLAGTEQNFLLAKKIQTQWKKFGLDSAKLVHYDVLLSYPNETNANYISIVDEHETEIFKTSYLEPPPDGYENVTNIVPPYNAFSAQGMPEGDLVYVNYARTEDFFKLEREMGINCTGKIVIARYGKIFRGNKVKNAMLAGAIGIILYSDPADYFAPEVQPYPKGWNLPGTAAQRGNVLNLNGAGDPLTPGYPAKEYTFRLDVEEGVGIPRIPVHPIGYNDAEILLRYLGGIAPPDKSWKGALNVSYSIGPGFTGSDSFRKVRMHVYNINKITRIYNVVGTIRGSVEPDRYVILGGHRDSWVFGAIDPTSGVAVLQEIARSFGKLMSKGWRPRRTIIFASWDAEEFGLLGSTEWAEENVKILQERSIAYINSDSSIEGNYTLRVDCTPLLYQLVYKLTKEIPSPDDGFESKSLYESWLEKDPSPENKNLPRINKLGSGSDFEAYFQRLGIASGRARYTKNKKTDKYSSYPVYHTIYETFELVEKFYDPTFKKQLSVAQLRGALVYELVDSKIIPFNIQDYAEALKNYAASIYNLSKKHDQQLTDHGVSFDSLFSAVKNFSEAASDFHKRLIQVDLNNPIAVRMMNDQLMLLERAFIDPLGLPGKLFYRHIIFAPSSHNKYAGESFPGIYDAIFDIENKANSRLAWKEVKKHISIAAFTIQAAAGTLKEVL

With `NCCCC[C@H](NC(=O)N[C@@H](CCC(=O)O)C(=O)O)C(=O)O` the Ki [1] was 12 nM.

With `O=C(O)CC[C@H](NC(=O)N[C@@H](CCC(=O)O)C(=O)O)C(=O)O` the Ki [2] was 8 nM.

Work on `O=C(O)CCC(CP(=O)(O)O)C(=O)O` (stereo not given) yielded a Ki [3] of ~0.275 nM.

With `CSC[C@@H](NC(=O)N[C@H](CCC(=O)O)C(=O)O)C(=O)O` the IC50 [4] was 15.3 nM.

Work on `CCCC(=O)OCN(C(=O)[C@@H](NC(=O)[C@H]1CCCCN1C)[C@@H](C)CC)[C@H](C[C@@H](OC(C)=O)c1nc(C(=O)N[C@@H](Cc2ccc(O)cc2)C[C@H](C)C(=O)NNC(=O)OCCSSC[C@H](NC(=O)[C@H](CC(=O)O)NC(=O)[C@H](CC(=O)O)NC(=O)Cc2ccc(CNC(=O)NCCCC[C@@H](NC(=O)N[C@H](CCC(=O)O)C(=O)O)C(=O)O)cc2)C(=O)O)cs1)C(C)C` yielded an IC50 (KB) of 0.6 nM, an IC50 (A549) of 0.9 nM and an IC50 (LNCaP [5]) of ~13 nM.

`CC[C@@H](C)[C@H]([C@H](CC(=O)N1CCC[C@@H]1[C@@H](OC)[C@H](C)C(=O)N[C@@H](C)[C@H](O)c1ccccc1)OC)N(C)C(=O)[C@H](NC(=O)[C@@H](C(C)C)N(C)C(=O)OCc1ccc(NC(=O)[C@@H](CCCNC(N)=O)NC(=O)[C@@H](NC(=O)CCCCCN2C(=O)CC(SC[C@H](NC(=O)[C@H](CCC(=O)O)NC(=O)[C@H](CCC(=O)O)NC(=O)[C@H](CCC(=O)O)NC(=O)CCCCCNC(=O)[C@H]3CC[C@H](CNC(=O)CC[C@@H](NC(=O)N[C@H](CCC(=O)O)C(=O)O)C(=O)O)CC3)C(=O)NCCCCCC(=O)N[C@@H](CCCCNC(=O)CCCCC[N+]3=C(/C=C/C=C/C=C4/N(C)c5ccc6ccccc6c5C4(C)C)C(C)(C)c4c3ccc3ccccc43)C(=O)O)C2=O)C(C)C)cc1)C(C)C` (stereo not given in full) gave an IC50 [6] of 4.64 nM, an IC50 [7] of 0.84 nM and an IC50 [8] of 17 nM. For the same compound, the IC50 [9] was 4.34 nM.

With `CC[C@@H](C)[C@H]([C@H](CC(=O)N1CCC[C@@H]1[C@@H](OC)[C@H](C)C(=O)N[C@@H](C)[C@H](O)c1ccccc1)OC)N(C)C(=O)[C@@H](NC(=O)[C@H](C(C)C)N(C)C(=O)OCc1ccc(NC(=O)[C@@H](CCCNC(N)=O)NC(=O)[C@H](NC(=O)CCCCCCC(=O)NCCCC[C@@H](NC(=O)N[C@H](CCC(=O)O)C(=O)O)C(=O)O)C(C)C)cc1)C(C)C` the Activity [10] was 62.4 mm3, the IC50 (Cathepsin B) was ~0.04 nM and the IC50 [11] was 3.9 nM.

For `CC(=O)O[C@H]1C(=O)[C@@]2(C)[C@H]([C@H](OC(=O)c3ccccc3)[C@]3(O)C[C@H](OC(=O)[C@H](OC(=O)CSSCC(=O)NCCNC(=O)CC[C@@H](NC(=O)N[C@H](CCC(=O)O)C(=O)O)C(=O)O)[C@@H](NC(=O)c4ccccc4)c4ccccc4)C(C)=C1C3(C)C)[C@]1(OC(C)=O)CO[C@@H]1C[C@@H]2O`, the IC50 at 48 h [12] was 14.2 nM and the IC50 (CWR22R; read-out: IC50) was 121 nM.

Compound `CC[C@H](C)[C@@H]([C@@H](CC(=O)N1CCC[C@H]1[C@H](OC)[C@@H](C)C(=O)N[C@H](C)[C@@H](O)c1ccccc1)OC)N(C)C(=O)[C@@H](NC(=O)[C@H](C(C)C)N(C)C(=O)OCc1ccc(NC(=O)[C@H](CCCNC(N)=O)NC(=O)[C@@H](NC(=O)CCCCCN2C(=O)CC(SCCC(=O)NC(Cc3cn(CCOCCNCCCCCCOc4cc(OCCCc5c(C)n[nH]c5C)cc(C(=O)O)c4)nn3)C(=O)NCCCCCC(=O)NCCCC[C@H](NC(=O)N[C@@H](CCC(=O)O)C(=O)O)C(=O)O)C2=O)C(C)C)cc1)C(C)C` (stereo not given in full) has an IC50 (DU-145) of 313 nM and an IC50 (LNCaP [13]) of 5.4 nM.

Work on `C/C=C(/C)C(=O)O[C@H]1C(C)=C2[C@H]([C@@H]1OC(=O)CCCCCCC)[C@@](C)(OC(C)=O)C[C@H](OC(=O)CCCCCCCCCCCNC(=O)C[C@H](N)C(=O)N[C@@H](CCC(=O)N[C@@H](CCC(=O)N[C@@H](CCC(=O)N[C@@H](CCC(=O)O)C(=O)O)C(=O)O)C(=O)O)C(=O)O)[C@@]1(O)[C@H]2OC(=O)[C@@]1(C)O` [MIPSAGARGIN] yielded a half-life [14] of 4.9 h.

For `CC(=O)O[C@H]1C(=O)[C@@]2(C)[C@H]([C@H](OC(=O)c3ccccc3)[C@]3(O)C[C@H](OC(=O)[C@H](O)[C@@H](NC(=O)c4ccccc4)c4ccccc4)C(C)=C1C3(C)C)[C@]1(OC(C)=O)CO[C@@H]1C[C@@H]2O` [PACLITAXEL], the IC50 (CWR22R) was 563 nM.
